For 13 compounds, logBB results are on record in patent publication US9512115B2, “Inhibitors” (PROBIODRUG AG, priority 2013, dated 2016).

SMILES strings stand for the structures.

The nature of the data set: Pharmacokinetic parameters in mice after oral administration (plasma, brain, CSF). The settings on record: brain tissue vs plasma; CD-1 mice, 30 mg/kg orally. Format: in vivo, mice (strain CD-1). As for the experimental part: The mice were anesthetized with Isoflurane. Approximate 200 μL of each blood sample were collected via cardiac puncture for terminal bleeding into K2EDTA tubes. […] CSF collection: The animals were euthanized with pure CO2 inhalation. A mid line incision was made on the neck. The muscle under the skin was cut to expose the cisterna magna. The cisterna magna was penetrated with the sharp end of a capillary and CSF was collected via capillarity. […] A mid-line incision was made in the animal scalp. The brain was removed and rinsed with cold saline. Brain was placed into a screw-top tube and weighed. […] The brain concentration was corrected with a dilution factor of 4 as following: Brain concentration=brain homogenate conc.×4, assuming 1 g wet brain tissue equals to 1 ml. For plasma samples: […] For Brain samples: Brain tissue was homogenized for 2 min with 3 volumes (v/w) of PBS. […] For CSF samples: […] Tmax, T1/2, AUC and log BB values were calculated using conventional methods.
Consider `O=C1OC[C@H](c2ccc(N3CCC(F)(F)C3)cc2F)N1c1ccc2[nH]cnc2c1` [compound 18, (S)-3-(1H-benzo[d]imidazol-5-yl)-4-(4-(3,3-difluoropyrrolidin-1-yl)-2-fluorophenyl)-oxazolidin-2-one], for which the logBB is given as −1.2913.

Compound `CC(F)(F)COc1ccc([C@H]2COC(=O)N2c2ccc3[nH]cnc3c2)c(F)c1F` [compound 6, (S)-3-(1H-benzo[d]imidazol-5-yl)-4-(4-(2,2-difluoropropoxy)-2,3-difluorophenyl)oxazolidin-2-one] came in with a logBB of −1.0431.

`CC(F)(F)CCOc1ccc([C@H]2COC(=O)N2c2ccc3[nH]cnc3c2)cc1F` [compound 10, (S)-3-(1H-benzo[d]imidazol-5-yl)-4-(4-(3,3-difluorobutoxy)-3-fluorophenyl)oxazolidin-2-one] displayed a logBB of −1.1234.

Consider `CC(F)(F)COc1c(F)cc([C@H]2COC(=O)N2c2ccc3[nH]cnc3c2)cc1F` [compound 8, (S)-3-(1H-benzo[d]imidazol-5-yl)-4-(4-(2,2-difluoropropoxy)-3,5-difluorophenyl)oxazolidin-2-one], for which the logBB was −0.9993.

Compound `O=C1OC[C@H](c2ccc(N3CCC(F)(F)C3)c(F)c2)N1c1ccc2[nH]cnc2c1` [compound 21, (S)-3-(1H-benzo[d]imidazol-5-yl)-4-(4-(3,3-difluoropyrrolidin-1-yl)-3-fluorophenyl) oxazolidin-2-one] registered a logBB of −1.208.

`CC(F)(F)COc1ccc([C@H]2COC(=O)N2c2ccc3[nH]cnc3c2)cc1F` [compound 5, (S)-3-(1H-benzo[d]imidazol-5-yl)-4-(4-(2,2-difluoropropoxy)-3-fluorophenyl)oxazolidin-2-one] yielded a logBB of −1.0928.

Compound `CC(F)(F)CCOc1ccc([C@H]2COC(=O)N2c2ccc3[nH]cnc3c2)c(F)c1` [compound 3, (S)-3-(1H-benzo[d]imidazol-5-yl)-4-(4-(3,3-difluorobutoxy)-2-fluorophenyl)oxazolidin-2-one] gave a logBB of −1.0428.

`O=C1OC[C@H](c2ccc(OCCC(F)F)c(F)c2F)N1c1ccc2[nH]cnc2c1` [compound 11, (S)-3-(1H-benzo[d]imidazol-5-yl)-4-(4-(3,3-difluoropropoxy)-2,3-difluorophenyl)oxazolidin-2-one] came in with a logBB of −0.9451.

`CC(F)(F)COc1ccc([C@H]2COC(=O)N2c2ccc3[nH]cnc3c2)c(F)c1` [compound 7, (S)-3-(1H-benzo[d]imidazol-5-yl)-4-(4-(2,2-difluoropropoxy)-2-fluorophenyl)oxazolidin-2-one]: the logBB was −0.9439.

For the compound `CC(F)(F)CCOc1ccc([C@H]2COC(=O)N2c2ccc3[nH]cnc3c2)c(F)c1F` [compound 1, (S)-3-(1H-benzo[d]imidazol-5-yl)-4-(4-(3,3-difluorobutoxy)-2,3-difluorophenyl)-oxazolidin-2-one], the logBB is −0.9363.

On to `O=C1OC[C@H](c2ccc(N3CCC(F)(F)C3)c(F)c2F)N1c1ccc2[nH]cnc2c1` [compound 19, (S)-3-(1H-benzo[d]imidazol-5-yl)-4-(4-(3,3-difluoropyrrolidin-1-yl)-2,3-difluorophenyl)-oxazolidin-2-one], for which the logBB is recorded as −1.2208.

As for `O=C1OC[C@H](c2ccc(OCCC(F)F)c(F)c2)N1c1ccc2[nH]cnc2c1` [compound 12, (S)-3-(1H-benzo[d]imidazol-5-yl)-4-(4-(3,3-difluoropropoxy)-3-fluorophenyl)oxazolidin-2-one], the logBB is −1.1821.

`O=C1OC[C@H](c2ccc(OCCC(F)F)cc2F)N1c1ccc2[nH]cnc2c1` [compound 2, (S)-3-(1H-benzo[d]imidazol-5-yl)-4-(4-(3,3-difluoropropoxy)-2-fluorophenyl)oxazolidin-2-one] gave a logBB of −1.1517.
